Patent US20090118276A1, “THIENOPYRIMIDINES, THIENOPYRIDINES, AND PYRROLOPYRIMIDINES AS B-RAF INHIBITORS” (priority 2007, published 2009)
Like-named read-outs stand apart in the source and are kept apart here.

Target: T1, Flag/GST-tagged recombinant human B-Raf (Homo sapiens, UniProt P15056)
T1 construct: Flag; GST; made in house; host or cells: Sf9 insect cells (B-Raf); E. coli (MEK1-GST)
Assay: B-Raf Kinase to MEK1 ELISA
Format: biochemical
Procedure: B-Raf Kinase to MEK1 ELISA
B-Raf1 Kinase Assay Procedure: B-Raf-1 is used to phosphorylate GST-MEK1.
B-Raf Assay Stock Solutions:
1. Assay Dilution Buffer (ADB): 20 mM MOPS, pH 7.2, 25 mM β-glycerol phosphate, 5 mM EGTA, 1 mM sodium orthovanadate, 1 mM dithiothreitol, 0.01% Triton X-100.
2. Magnesium/ATP Cocktail: ADB solution (minus Triton X-100) plus 200 μM cold ATP and 40 mM magnesium chloride.
4. Active Kinase: Active B-Raf: used at 0.2 nM per assay point.
8. Anti pMEK Ab (Upstate)
9. Anti-rabbit Ab/Europium conjugate (Wallac)
1. Add 25 μl of ADB containing B-Raf and Mek per assay (i.e. per well of a 96 well plate)
2. Add 25 μl of 0.2 mM ATP and 40 mM magnesium chloride in Magnesium/ATP Cocktail.
3. Incubate for 45 minutes at RT with occasional shaking.
4. Transfer this mixture to an anti-GST Ab coated 96 well plate (Nunc Immunosorb plates coated o/n with a-GST. Plate freshly washed 3× with TBS-T before use.
5. Incubate o/n at 30° C. in cold room.
6. Wash 3× with TBST, add Anti-Phospho MEK1 (1:1000, dilution depends upon lot)
7. Incubate for 60 minutes at RT in a shaking incubator
8. Wash 3× with TBST, add Anti-rabbit Ab/Europium conjugate (Wallac) (1:500, dilution depends upon lot)
9. Incubate for 60 minutes at RT on a platform shaker.
10. Wash plate 3× with TBS-T
11. Add 100 μl of Wallac Delfia Enhancement Solution and shake for 10 minutes.
12. Read plates in Wallac Victor model Plate Reader.
13. Collect data analyze in Excel for single point and IC50 determinations.
The % inhibition was determined for each compound concentration.

[1] = phosphorylation of GST-MEK1 by B-Raf (0.2 nM), phospho-MEK1 antibody/Europium readout, compound concentrations from 1 μM to 3 nM or 0.1 μM to 300 pm in half log dilutions, read-out: IC50

T1 sequence (P15056 whole entry): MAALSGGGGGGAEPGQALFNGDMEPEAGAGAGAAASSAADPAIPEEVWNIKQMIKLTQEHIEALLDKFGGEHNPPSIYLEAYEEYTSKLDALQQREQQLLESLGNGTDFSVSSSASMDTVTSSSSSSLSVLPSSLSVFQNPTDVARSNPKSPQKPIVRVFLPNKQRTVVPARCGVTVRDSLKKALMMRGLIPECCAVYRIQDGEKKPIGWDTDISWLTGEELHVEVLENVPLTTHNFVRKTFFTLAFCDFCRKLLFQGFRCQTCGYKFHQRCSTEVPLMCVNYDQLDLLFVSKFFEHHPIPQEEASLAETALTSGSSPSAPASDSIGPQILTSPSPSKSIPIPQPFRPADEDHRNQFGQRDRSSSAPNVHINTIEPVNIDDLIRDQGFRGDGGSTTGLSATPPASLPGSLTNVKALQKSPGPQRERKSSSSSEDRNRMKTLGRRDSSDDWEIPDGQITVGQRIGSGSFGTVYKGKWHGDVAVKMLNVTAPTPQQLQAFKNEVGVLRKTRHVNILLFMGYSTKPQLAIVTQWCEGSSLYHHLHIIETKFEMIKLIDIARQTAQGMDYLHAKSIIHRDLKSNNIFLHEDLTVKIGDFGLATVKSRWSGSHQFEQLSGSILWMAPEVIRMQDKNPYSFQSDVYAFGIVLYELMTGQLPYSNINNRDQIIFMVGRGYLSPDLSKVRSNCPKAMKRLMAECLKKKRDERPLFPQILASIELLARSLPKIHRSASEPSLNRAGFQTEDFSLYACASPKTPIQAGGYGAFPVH

| IC50 | IC50 [1] | Structure (SMILES) |
| --- | --- | --- |
| 1.53 µM | – | Cc1ccc(NC(=O)Nc2cccc(-c3ncnc4sc(-c5ccncc5)cc34)c2)cc1C [Compound 44, N-(3,4-dimethylphenyl)-N′-[3-(6-pyridin-4-ylthieno[2,3-d]pyrimidin-4-yl)phenyl]urea] |
| – | 0.73 µM | CNC(=O)c1cc(-c2cc3c(-c4cccc(NC(=O)c5cccc(C(F)(F)F)c5)c4)ncnc3s2)ccn1 [Compound 85, N-methyl-4-[4-(3-{[3-(trifluoromethyl)benzoyl]amino}phenyl)thieno[2,3-d]pyrimidin-6-yl]pyridine-2-carboxamide] |
| – | 0.872 µM | CC(=O)Nc1ccc(-c2cc3c(-c4cccc(NC(=O)c5cccc(C(F)(F)F)c5)c4)ncnc3s2)cc1 [Compound 68, N-(3-{6-[4-(acetylamino)phenyl]thieno[2,3-d]pyrimidin-4-yl}phenyl)-3-(trifluoromethyl)benzamide] |
| – | 5.98 µM | N#Cc1cc2c(-c3cccc(NC(=O)c4cccc(C(F)(F)F)c4)c3)ncnc2s1 [Compound 88, N-[3-(6-cyanothieno[2,3-d]pyrimidin-4-yl)phenyl]-3-(trifluoromethyl)benzamide] |
| 2.61 µM | – | Cc1ccc(C(=O)Nc2cccc(-c3ncnc4sc(-c5ccncc5)cc34)c2)cc1C(F)(F)F [Compound 37, 4-methyl-N-[3-(6-pyridin-4-ylthieno[2,3-d]pyrimidin-4-yl)phenyl]-3-(trifluoromethyl)benzamide] |
| 0.08 µM | – | O=C(Nc1cccc(-c2ncnc3sc(-c4ccncc4)cc23)c1)c1cccc(C(F)(F)F)c1 [Compound 42, N-[3-(6-pyridin-4-ylthieno[2,3-d]pyrimidin-4-yl)phenyl]-3-(trifluoromethyl)benzamide] |
| 1.79 µM | – | O=C(Nc1cccc(-c2ncnc3sc(-c4ccncc4)cc23)c1)Nc1cccc(C(F)(F)F)c1 [Compound 41, N-[3-(6-pyridin-4-ylthieno[2,3-d]pyrimidin-4-yl)phenyl]-N′-[3-(trifluoromethyl)phenyl]urea] |
| 0.54 µM | – | O=C(Nc1cccc(-c2ncnc3cc(-c4ccncc4)sc23)c1)c1cccc(C(F)(F)F)c1 [Compound 6, N-[3-(6-pyridin-4-ylthieno[3,2-d]pyrimidin-4-yl)phenyl]-3-(trifluoromethyl)benzamide] |
| 8.75 µM | – | O=C(Nc1cccc(Cl)c1)Nc1cccc(-c2ncnc3sc(-c4ccncc4)cc23)c1 [Compound 45, N-(3-chlorophenyl)-N′-[3-(6-pyridin-4-ylthieno[2,3-d]pyrimidin-4-yl)phenyl]urea] |
| – | 0.158 µM | O=C(Nc1cccc(-c2ncnc3sc(-c4ccnc(NCCCn5ccnc5)c4)cc23)c1)c1cccc(C(F)(F)F)c1 [Compound 87, N-{3-[6-(2-{[3-(1H-imidazol-1-yl)propyl]amino}pyridin-4-yl)thieno[2,3-d]pyrimidin-4-yl]phenyl}-3-(trifluoromethyl)benzamide] |
| 3.46 µM | – | COc1ccc(C(=O)Nc2cccc(-c3ncnc4sc(-c5ccncc5)cc34)c2)cc1C(F)(F)F [Compound 35, 4-methoxy-N-[3-(6-pyridin-4-ylthieno[2,3-d]pyrimidin-4-yl)phenyl]-3-(trifluoromethyl)benzamide] |
| 0.0685 µM | – | O=C(Nc1cccc(-c2ncnc3c2cc(-c2ccncc2)n3CCN2CCCC2)c1)c1cccc(C(F)(F)F)c1 [Compound 108, N-{3-[6-pyridin-4-yl-7-(2-pyrrolidin-1-ylethyl)-7H-pyrrolo[2,3-d]pyrimidin-4-yl]phenyl}-3-(trifluoromethyl)benzamide] |
| 1.02 µM | – | O=C(Nc1cccc(-c2ncnc3c2ccn3Cc2ccncc2)c1)c1cccc(C(F)(F)F)c1 [Compound 98, N-{3-[7-(pyridin-4-ylmethyl)-7H-pyrrolo[2,3-d]pyrimidin-4-yl]phenyl}-3-(trifluoromethyl)benzamide] |
| – | 4.67 µM | O=C(Nc1cccc(-c2ncnc3sc(-c4ccc(Cl)cc4)cc23)c1)c1cccc(C(F)(F)F)c1 [Compound 79, N-{3-[6-(4-chlorophenyl)thieno[2,3-d]pyrimidin-4-yl]phenyl}-3-(trifluoromethyl)benzamide] |
| – | 0.0345 µM | O=C(Nc1cccc(-c2ncnc3[nH]c(-c4ccncc4)cc23)c1)c1cccc(C(F)(F)F)c1 [Compound 101, N-[3-(6-pyridin-4-yl-7H-pyrrolo[2,3-d]pyrimidin-4-yl)phenyl]-3-(trifluoromethyl)benzamide] |
| 0.0665 µM | – | CN(C)CCCn1c(-c2ccncc2)cc2c(-c3cccc(NC(=O)c4cccc(C(F)(F)F)c4)c3)ncnc21 [Compound 109, N-(3-{7-[3-(dimethylamino)propyl]-6-pyridin-4-yl-7H-pyrrolo[2,3-d]pyrimidin-4-yl}phenyl)-3-(trifluoromethyl)benzamide] |
| – | 2.07 µM | CC(=O)Nc1cccc(-c2cc3c(-c4cccc(NC(=O)c5cccc(C(F)(F)F)c5)c4)ncnc3s2)c1 [Compound 72, N-(3-{6-[3-(acetylamino)phenyl]thieno[2,3-d]pyrimidin-4-yl}phenyl)-3-(trifluoromethyl)benzamide] |
| 6.57 µM | – | CN(C)c1ccc(-n2ccc3c(-c4cccc(NC(=O)c5cccc(C(F)(F)F)c5)c4)ncnc32)cc1 [Compound 107, N-(3-{7-[4-(dimethylamino)phenyl]-7H-pyrrolo[2,3-d]pyrimidin-4-yl}phenyl)-3-(trifluoromethyl)benzamide] |
| 1.23 µM | – | O=C(Nc1ccc(Cl)cc1)Nc1cccc(-c2ncnc3sc(-c4ccncc4)cc23)c1 [Compound 46, N-(4-chlorophenyl)-N′-[3-(6-pyridin-4-ylthieno[2,3-d]pyrimidin-4-yl)phenyl]urea] |
| – | 1.23 µM | N#Cc1ccc(-c2cc3c(-c4cccc(NC(=O)c5cccc(C(F)(F)F)c5)c4)ncnc3s2)cc1 [Compound 77, N-{3-[6-(4-cyanophenyl)thieno[2,3-d]pyrimidin-4-yl]phenyl}-3-(trifluoromethyl)benzamide] |
| – | 2.72 µM | NC(=O)c1cc2c(-c3cccc(NC(=O)c4cccc(C(F)(F)F)c4)c3)ncnc2s1 [Compound 89, 4-(3-{[3-(trifluoromethyl)benzoyl]amino}phenyl)thieno[2,3-d]pyrimidine-6-carboxamide] |
| – | 2.73 µM | CC(=O)c1ccc(-c2cc3c(-c4cccc(NC(=O)c5cccc(C(F)(F)F)c5)c4)ncnc3s2)cc1 [Compound 80, N-{3-[6-(4-acetylphenyl)thieno[2,3-d]pyrimidin-4-yl]phenyl}-3-(trifluoromethyl)benzamide] |
| 0.191 µM | – | O=C(Nc1cccc(-c2ncnc3c2ccn3-c2ccc(CN3CCNCC3)cc2)c1)c1cccc(C(F)(F)F)c1 [Compound 112, N-(3-{7-[4-(piperazin-1-ylmethyl)phenyl]-7H-pyrrolo[2,3-d]pyrimidin-4-yl}phenyl)-3-(trifluoromethyl)benzamide] |
| 3.53 µM | – | O=C(Nc1cccc(-c2ncnc3sc(-c4ccncc4)cc23)c1)c1ccc(Cl)c(C(F)(F)F)c1 [Compound 40, 4-chloro-N-[3-(6-pyridin-4-ylthieno[2,3-d]pyrimidin-4-yl)phenyl]-3-(trifluoromethyl)benzamide] |
| 9.6 µM | – | COc1ccc(C(=O)Nc2cccc(-c3c(C#N)cnc4cc(-c5ccncc5)sc34)c2)cc1C(F)(F)F [Compound 7, N-[3-(6-cyano-2-pyridin-4-ylthieno[3,2-b]pyridin-7-yl)phenyl]-4-methoxy-3-(trifluoromethyl)benzamide] |

| Structure (SMILES) | IC50 | IC50 [1] |
| --- | --- | --- |
| O=C(Nc1cccc(-c2ncnc3sc(C4=CCNCC4)cc23)c1)c1cccc(C(F)(F)F)c1 [Compound 67, N-{3-[6-(1,2,3,6-tetrahydropyridin-4-yl)thieno[2,3-d]pyrimidin-4-yl]phenyl}-3-(trifluoromethyl)benzamide] | – | 2.5 µM |
